Experiment [1] deals with gamma-IFN-producing CD8 cells in PBMCs from patient 201#5. Briefly: ELISpot-γIFN assay, ex vivo recognition of epitope peptides by PBMCs. The conditions noted are these: PBMCs from patient 201#5 treated with NRTIs and carrying RT mutation 41 (M>L), no prior stimulation.
Experiment [2] has as its target Wild-type peptide 33-41 of HIV-1 reverse transcriptase (HIV-1).
For experiment [3], the target named is Mutated peptide 33-41 of HIV-1 reverse transcriptase (mutation 41 M>L) (HIV-1).

For the substance ALVEICTEL [mutated peptide 33-41], the “frequency of recognition (cells secreting γIFN), SFC/10^6 PBMCs” value in experiment [1] worked out at 95 SFC/10^6 PBMCs. For the substance ALVEICTEM [wild-type peptide 33-41], the “frequency of recognition (cells secreting γIFN), SFC/10^6 PBMCs” value in experiment [1] came to 3 SFC/10^6 PBMCs. Regarding “PBMCs from patient 201#5 (cells without a defined receptor)”, the SFC/10^6 PBMCs (ELISpot gamma-IFN) (SFC/10^6 PBMCs) came to 3 in experiment [2] and 95 in experiment [3].
